#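 All cell lines were grown in 96-well plates and treated with compound for 48 hours. GI50 = concentration required for 50% inhibition of growth. TGI denotes the concentration required for complete inhibition of growth.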
# What was measured:
# Test in all cases: growth of human tumour cells (NCI), 48 h
# KM12 colon = test system: KM12 colon
# K-562 leukemia = test system: K-562 leukemia
# SK-OV-3 ovarian = test system: SK-OV-3 ovarian
# HL-60(TB) leukemia = test system: HL-60(TB) leukemia
# UACC-257 melanoma = test system: UACC-257 melanoma
# MCF7 breast = test system: MCF7 breast
# SN12C renal = test system: SN12C renal
# OVCAR-5 ovarian = test system: OVCAR-5 ovarian
# PC-3 prostate = test system: PC-3 prostate
# CAKI-1 renal = test system: CAKI-1 renal
# HT29 colon = test system: HT29 colon
# OVCAR-4 ovarian = test system: OVCAR-4 ovarian
# HCT-116 colon = test system: HCT-116 colon
# OVCAR-8 ovarian = test system: OVCAR-8 ovarian
# RXF 393 renal = test system: RXF 393 renal
# NCI-H226 lung = test system: NCI-H226 lung
# SK-MEL-2 melanoma = test system: SK-MEL-2 melanoma
# SF-539 CNS = test system: SF-539 CNS
# EKVX NSCLC = test system: EKVX NSCLC
# SF-295 CNS = test system: SF-295 CNS
# HCT-15 colon = test system: HCT-15 colon
# M14 melanoma = test system: M14 melanoma
# NCI-H460 lung = test system: NCI-H460 lung
# HCC-2998 colon = test system: HCC-2998 colon
# CCRF-CEM leukemia = test system: CCRF-CEM leukemia
# SF-268 CNS = test system: SF-268 CNS
# SW-620 colon = test system: SW-620 colon
# COLO 205 colon = test system: COLO 205 colon
# A549 NSCLC = test system: A549 NSCLC
# UACC-62 melanoma = test system: UACC-62 melanoma
# SNB-19 CNS = test system: SNB-19 CNS
# MDA-MB-435 = test system: MDA-MB-435
# DU-145 prostate = test system: DU-145 prostate
# ACHN renal = test system: ACHN renal
# MALME-3M melanoma = test system: MALME-3M melanoma
# T-47D breast = test system: T-47D breast
# MDA-MB-231 breast = test system: MDA-MB-231 breast
# RPMI-8226 leukemia = test system: RPMI-8226 leukemia
# HOP-92 NSCLC = test system: HOP-92 NSCLC
# MOLT-4 leukemia = test system: MOLT-4 leukemia
# SR leukemia = test system: SR leukemia
# IGROV1 ovarian = test system: IGROV1 ovarian
# 786-0 renal = test system: 786-0 renal
# SNB-75 CNS = test system: SNB-75 CNS
# UO-31 renal = test system: UO-31 renal
# BT-549 breast = test system: BT-549 breast
# NCI/ADR-RES ovarian = test system: NCI/ADR-RES ovarian
# A498 renal = test system: A498 renal
# LOX IMVI melanoma = test system: LOX IMVI melanoma
# U251 CNS = test system: U251 CNS
# OVCAR-3 ovarian = test system: OVCAR-3 ovarian
# SK-MEL-28 melanoma = test system: SK-MEL-28 melanoma
# TK-10 renal = test system: TK-10 renal
# SK-MEL-5 melanoma = test system: SK-MEL-5 melanoma
# NCI-H23 lung = test system: NCI-H23 lung
# HOP-62 NSCLC = test system: HOP-62 NSCLC
# HS 578T breast = test system: HS 578T breast
# NCI-H522 lung = test system: NCI-H522 lung
smiles,measurement,setting,value
C=CC(=O)N[C@@H]1CN(c2nc(Nc3cn(C)nc3OC)c3ncn(C)c3n2)C[C@H]1F,GI50,KM12 colon,33.6 µM
same,TGI,KM12 colon,> 100 µM
same,GI50,K-562 leukemia,42.9 µM
same,TGI,K-562 leukemia,> 100 µM
same,GI50,SK-OV-3 ovarian,0.0881 µM
same,TGI,SK-OV-3 ovarian,> 47.2 µM
same,GI50,HL-60(TB) leukemia,27.8 µM
same,TGI,HL-60(TB) leukemia,78.5 µM
same,GI50,UACC-257 melanoma,35.8 µM
same,TGI,UACC-257 melanoma,> 100 µM
same,GI50,MCF7 breast,17.7 µM
same,TGI,MCF7 breast,> 100 µM
same,GI50,SN12C renal,45.9 µM
same,TGI,SN12C renal,> 100 µM
same,GI50,OVCAR-5 ovarian,11.5 µM
same,TGI,OVCAR-5 ovarian,> 100 µM
same,GI50,PC-3 prostate,60.1 µM
same,TGI,PC-3 prostate,> 100 µM
same,GI50,CAKI-1 renal,1.22 µM
same,TGI,CAKI-1 renal,> 100 µM
same,GI50,HT29 colon,20.9 µM
same,TGI,HT29 colon,> 83.1 µM
same,GI50,OVCAR-4 ovarian,26.7 µM
same,TGI,OVCAR-4 ovarian,> 100 µM
same,GI50,HCT-116 colon,27.3 µM
same,TGI,HCT-116 colon,> 100 µM
same,GI50,OVCAR-8 ovarian,33.6 µM
same,TGI,OVCAR-8 ovarian,> 100 µM
same,GI50,RXF 393 renal,34.1 µM
same,TGI,RXF 393 renal,> 84.5 µM
same,GI50,NCI-H226 lung,> 83 µM
same,TGI,NCI-H226 lung,> 100 µM
same,GI50,SK-MEL-2 melanoma,26.1 µM
same,TGI,SK-MEL-2 melanoma,78.3 µM
same,GI50,SF-539 CNS,28.1 µM
same,TGI,SF-539 CNS,> 100 µM
same,GI50,EKVX NSCLC,0.273 µM
same,TGI,EKVX NSCLC,97.9 µM
same,GI50,SF-295 CNS,38.9 µM
same,TGI,SF-295 CNS,> 100 µM
same,GI50,HCT-15 colon,39 µM
same,TGI,HCT-15 colon,> 100 µM
same,GI50,M14 melanoma,18.7 µM
same,TGI,M14 melanoma,61.6 µM
same,GI50,NCI-H460 lung,34.5 µM
same,TGI,NCI-H460 lung,> 100 µM
same,GI50,HCC-2998 colon,47.8 µM
same,TGI,HCC-2998 colon,> 100 µM
same,GI50,CCRF-CEM leukemia,39.4 µM
same,TGI,CCRF-CEM leukemia,> 100 µM
same,GI50,SF-268 CNS,21.5 µM
same,TGI,SF-268 CNS,> 100 µM
same,GI50,SW-620 colon,26.9 µM
same,TGI,SW-620 colon,> 100 µM
same,GI50,COLO 205 colon,17.6 µM
same,TGI,COLO 205 colon,48.6 µM
same,GI50,A549 NSCLC,24.5 µM
same,TGI,A549 NSCLC,> 100 µM
same,GI50,UACC-62 melanoma,23.1 µM
same,TGI,UACC-62 melanoma,> 90.6 µM
same,GI50,SNB-19 CNS,27.1 µM
same,TGI,SNB-19 CNS,> 100 µM
same,GI50,MDA-MB-435,15.8 µM
same,TGI,MDA-MB-435,38.5 µM
same,GI50,DU-145 prostate,4.02 µM
same,TGI,DU-145 prostate,> 91.7 µM
same,GI50,ACHN renal,0.506 µM
same,TGI,ACHN renal,> 100 µM
same,GI50,MALME-3M melanoma,23.4 µM
same,TGI,MALME-3M melanoma,> 100 µM
same,GI50,T-47D breast,1.74 µM
same,TGI,T-47D breast,> 100 µM
same,GI50,MDA-MB-231 breast,23.8 µM
same,TGI,MDA-MB-231 breast,> 88.2 µM
same,GI50,RPMI-8226 leukemia,> 71.7 µM
same,TGI,RPMI-8226 leukemia,> 100 µM
same,GI50,HOP-92 NSCLC,17.3 µM
same,TGI,HOP-92 NSCLC,70.7 µM
same,GI50,MOLT-4 leukemia,39 µM
same,TGI,MOLT-4 leukemia,> 100 µM
same,GI50,SR leukemia,7.57 µM
same,TGI,SR leukemia,> 91.3 µM
same,GI50,IGROV1 ovarian,2.61 µM
same,TGI,IGROV1 ovarian,> 72.6 µM
same,GI50,786-0 renal,28.1 µM
same,TGI,786-0 renal,> 100 µM
same,GI50,SNB-75 CNS,19.4 µM
same,TGI,SNB-75 CNS,> 78 µM
same,GI50,UO-31 renal,10.9 µM
same,TGI,UO-31 renal,> 100 µM
same,GI50,BT-549 breast,28.6 µM
same,TGI,BT-549 breast,> 100 µM
same,GI50,NCI/ADR-RES ovarian,> 100 µM
same,TGI,NCI/ADR-RES ovarian,> 100 µM
same,GI50,A498 renal,16.4 µM
same,TGI,A498 renal,67.7 µM
same,GI50,LOX IMVI melanoma,30 µM
same,TGI,LOX IMVI melanoma,> 100 µM
same,GI50,U251 CNS,39.1 µM
same,TGI,U251 CNS,> 100 µM
same,GI50,OVCAR-3 ovarian,19 µM
same,TGI,OVCAR-3 ovarian,> 88 µM
same,GI50,SK-MEL-28 melanoma,50 µM
same,TGI,SK-MEL-28 melanoma,> 100 µM
same,GI50,TK-10 renal,0.0664 µM
same,TGI,TK-10 renal,23.9 µM
same,GI50,SK-MEL-5 melanoma,24.8 µM
same,TGI,SK-MEL-5 melanoma,> 59.8 µM
same,GI50,NCI-H23 lung,27.5 µM
same,TGI,NCI-H23 lung,> 100 µM
same,GI50,HOP-62 NSCLC,26.2 µM
same,TGI,HOP-62 NSCLC,> 100 µM
same,GI50,HS 578T breast,34 µM
same,TGI,HS 578T breast,> 100 µM
same,GI50,NCI-H522 lung,0.0335 µM
same,TGI,NCI-H522 lung,17.7 µM

# From PubChem BioAssay (NCI)
